| Structure (SMILES) | melting point [°C] |
| --- | --- |
| CC(C)n1nc(-c2sc(NC(=O)c3ccccc3OC(F)(F)F)nc2-c2ccccc2)ccc1=O [Example 53, N-[5-(1-Isopropyl-6-oxo-1,6-dihydro-3-pyridazinyl)-4-phenyl-1,3-thiazol-2-yl]-2-(trifluoromethoxy)benzamide] | 212 to 213 |
| CC(C)n1nc(-c2sc(N)nc2-c2ccc(F)cc2)ccc1=O [Example 77, 6-[2-amino-4-(4-fluorophenyl)-1,3-thiazol-5-yl]-2-isopropyl-3(2H)-pyridazinone] | 255.5 to 257 |
| CC(C)n1nc(-c2sc(C(=O)NCc3ccccn3)nc2-c2ccc(F)cc2)ccc1=O [Example 211, 4-(4-Fluorophenyl)-5-(1-isopropyl-6-oxo-1,6-dihydro-3-pyridazinyl)-N-(2-pyridinylmethyl)-1,3-thiazole-2-carboxamide] | 203.5 to 205 |
| CC(C)n1nc(-c2sc(NC(=O)C3CC3)nc2-c2ccc(F)cc2)ccc1=O [Example 57, N-[4-(4-Fluorophenyl)-5-(1-isopropyl-6-oxo-1,6-dihydro-3-pyridazinyl)-1,3-thiazol-2-yl]cyclopropanecarboxamide] | 250 to 252 |
| CC(C)n1nc(-c2sc(NC(=O)NCc3ccccc3)nc2-c2ccccc2)ccc1=O [Example 11, N-benzyl-N′-[5-(1-isopropyl-6-oxo-1,6-dihydro-3-pyridazinyl)-4-phenyl-1,3-thiazol-2-yl]urea] | 200 to 201 |
| CC(C)n1nc(-c2sc(NC(=O)c3cccc(C(F)(F)F)c3)nc2-c2ccccc2)ccc1=O [Example 38, N-[5-(1-Isopropyl-6-oxo-1,6-dihydro-3-pyridazinyl)-4-phenyl-1,3-thiazol-2-yl]-3-(trifluoromethyl)benzamide] | 237 to 238 |
| CC(C)n1nc(-c2sc(NC(=O)c3ccc(C(F)(F)F)cc3)nc2-c2ccccc2)ccc1=O [Example 39, N-[5-(1-Isopropyl-6-oxo-1,6-dihydro-3-pyridazinyl)-4-phenyl-1,3-thiazol-2-yl]-4-(trifluoromethyl)benzamide] | 162 to 167 |
| CC(C)n1nc(-c2sc(N)nc2-c2cccc(F)c2)ccc1=O [Example 80, 6-[2-Amino-4-(3-fluorophenyl)-1,3-thiazol-5-yl]-2-isopropyl-3(2H)-pyridazinone] | 237 to 238 |
| O=C(NCc1ccccn1)c1nc(-c2ccccc2)c(-c2ccc(=O)[nH]n2)s1 [Example 200, 5-(6-oxo-1,6-dihydro-3-pyridazinyl)-4-phenyl-N-(2-pyridinylmethyl)-1,3-thiazole-2-carboxamide] | 221 to 222.5 |
| CC(C)n1nc(-c2sc(NC(=O)CNCC(O)c3ccccc3)nc2-c2ccccc2)ccc1=O.Cl (centres unmarked) | 218 to 220 |
| CC(C)n1nc(-c2sc(NC(=O)c3ccc(CN(C)CCN(C)C)cc3)nc2-c2ccccc2)ccc1=O [Example 137, 4-{[[2-(Dimethylamino)ethyl] (methyl)amino]methyl}-N-[5-(1-isopropyl-6-oxo-1,6-dihydro-3-pyridazinyl)-4-phenyl-1,3-thiazol-2-yl]benzamide] | 131 to 133 |
| Nc1nc(-c2ccccc2)c(-c2ccc(=O)n(Cc3ccccc3)n2)s1 [Example 92, 6-(2-Amino-4-phenyl-1,3-thiazol-5-yl)-2-benzyl-3(2H)-pyridazinone] | 225 to 228 |
| CCCNC(=O)c1nc(-c2ccccc2)c(-c2ccc(=O)n(Cc3ccccc3)n2)s1 [Example 174, 5-(1-benzyl-6-oxo-1,6-dihydro-3-pyridazinyl)-4-phenyl-N-propyl-1,3-thiazole-2-carboxamide] | 120 to 121 |
| CC(C)n1nc(-c2sc(C(=O)NCc3ccccn3)nc2-c2cccc(Cl)c2)ccc1=O [Example 209, 4-(3-Chlorophenyl)-5-(1-isopropyl-6-oxo-1,6-dihydro-3-pyridazinyl)-N-(2-pyridinylmethyl)-1,3-thiazole-2-carboxamide] | 168 to 169.5 |
| CC(C)n1nc(-c2sc(NC(=O)c3ccc(CNCCCN(C)C)cc3)nc2-c2ccccc2)ccc1=O [Example 143, 4-({[3-(Dimethylamino)propyl]amino}methyl)-N-[5-(1-isopropyl-6-oxo-1,6-dihydro-3-pyridazinyl)-4-phenyl-1,3-thiazol-2-yl]benzamide] | 108 to 110 |
| CCn1nc(-c2sc(C(=O)NCc3ccccn3)nc2-c2ccccc2)ccc1=O [Example 202, 5-(1-Ethyl-6-oxo-1,6-dihydro-3-pyridazinyl)-4-phenyl-N-(2-pyridinylmethyl)-1,3-thiazole-2-carboxamide] | 169 to 170.5 |
| Cc1ccc(S(=O)(=O)NC(=O)Nc2nc(-c3ccccc3)c(-c3ccc(=O)n(C(C)C)n3)s2)cc1 [Example 12, N-({[5-(1-Isopropyl-6-oxo-1,6-dihydro-3-pyridazinyl)-4-phenyl-1,3-thiazol-2-yl]amino}carbonyl)-4-methylbenzene-sulfonamide] | 172 to 174 |

The remaining lines, values ahead:

| melting point [°C] | Structure (SMILES) |
| --- | --- |
| 166 to 167 | C=CCn1nc(-c2sc(C(=O)NC(C)C)nc2-c2ccccc2)ccc1=O [Example 181, 5-(1-allyl-6-oxo-1,6-dihydro-3-pyridazinyl)-N-isopropyl-4-phenyl-1,3-thiazole-2-carboxamide] |
| 209 to 211 | CC(O)CNCC(=O)Nc1nc(-c2ccccc2)c(-c2ccc(=O)n(C(C)C)n2)s1.Cl (centres unmarked) |
| 115 to 116 | CC(C)n1nc(-c2sc(NCc3ccco3)nc2-c2ccccc2)ccc1=O [Example 66, 6-{2-[(2-Furylmethyl)amino]-4-phenyl-1,3-thiazol-5-yl}-2-isopropyl-3(2H)-pyridazinone] |
| 169 to 170.5 | CC(C)n1nc(-c2sc(C(=O)N3CCCC3)nc2-c2ccccc2)ccc1=O [Example 226, 2-Isopropyl-6-[4-phenyl-2-(1-pyrrolidinylcarbonyl)-1,3-thiazol-5-yl]-3(2H)-pyridazinone] |
| 105 to 106 | CC(C)NC(=O)c1nc(-c2cccc(Cl)c2)c(-c2ccc(=O)n(C(C)C)n2)s1 [Example 187, 4-(3-chlorophenyl)-N-isopropyl-5-(1-isopropyl-6-oxo-1,6-dihydro-3-pyridazinyl)-1,3-thiazole-2-carboxamide] |
| > 250 | CC(C)n1nc(-c2sc(N)nc2-c2ccccc2)ccc1=O [Example 1, 6-(2-amino-4-phenyl-1,3-thiazol-5-yl)-2-isopropyl-3(2H)-pyridazinone] |
| 111 to 112 | CC(C)n1nc(-c2sc(C(=O)N3CCCCC3)nc2-c2ccccc2)ccc1=O [Example 218, 2-Isopropyl-6-[4-phenyl-2-(1-piperidinylcarbonyl)-1,3-thiazol-5-yl]-3(2H)-pyridazinone] |
| 155 to 156.5 | CC(C)n1nc(-c2sc(C(=O)N3CCN(C)CC3)nc2-c2ccccc2)ccc1=O [Example 228, 2-Isopropyl-6-{2-[(4-methyl-1-piperazinyl)carbonyl]-4-phenyl-1,3-thiazol-5-yl)-3(2H)-pyridazinone] |
| 251 to 252 | CC(C)n1nc(-c2sc(NC(=O)c3ccccc3F)nc2-c2ccccc2)ccc1=O [Example 37, 2-Fluoro-N-[5-(1-isopropyl-6-oxo-1,6-dihydro-3-pyridazinyl)-4-phenyl-1,3-thiazol-2-yl]benzamide] |
| 250 to 252 | CC(C)n1nc(-c2sc(NC(=O)Cc3ccccc3)nc2-c2ccccc2)ccc1=O [Example 4, N-[5-(1-Isopropyl-6-oxo-1,6-dihydro-3-pyridazinyl)-4-phenyl-1,3-thiazol-2-yl]-2-phenylacetamide] |
| 224 to 226 | CC(C)n1nc(-c2sc(NC(=O)C(C)(C)C)nc2-c2ccccc2)ccc1=O [Example 5, N-[5-(1-Isopropyl-6-oxo-1,6-dihydro-3-pyridazinyl)-4-phenyl-1,3-thiazol-2-yl]-2,2-dimethylpropanamide] |
| 123 to 125 | CC(C)n1nc(-c2sc(NC(=O)CNC3CC3)nc2-c2ccccc2)ccc1=O.Cl |
| 155 to 157 | CC(C)n1nc(-c2sc(NC(=O)CN(C)CCN(C)C)nc2-c2ccccc2)ccc1=O [Example 118, 2-[(2-(Dimethylamino)ethyl)(methyl)amino]-N-[5-(1-isopropyl-6-oxo-1,6-dihydro-3-pyridazinyl)-4-phenyl-1,3-thiazol-2-yl]acetamide] |
| 138 to 139 | CC(C)Nc1nc(-c2ccccc2)c(-c2ccc(=O)n(C(C)C)n2)s1 [Example 64, 2-Isopropyl-6-[2-(isopropylamino)-4-phenyl-1,3-thiazol-5-yl]-3(2H)-pyridazinone] |
| 165 to 167.5 | CNC(=O)c1nc(-c2ccccc2)c(-c2ccc(=O)n(C(C)C)n2)s1 [Example 212, 5-(1-isopropyl-6-oxo-1,6-dihydro-3-pyridazinyl)-N-methyl-4-phenyl-1,3-thiazole-2-carboxamide] |
| 167 to 168 | COCCNCCC(=O)Nc1nc(-c2ccccc2)c(-c2ccc(=O)n(C(C)C)n2)s1 [Example 122, N-[5-(1-Isopropyl-6-oxo-1,6-dihydro-3-pyridazinyl)-4-phenyl-1,3-thiazol-2-Yl]-3-[(2-methoxyethyl)amino]propanamide] |
| 136 to 142 | CC(C)n1nc(-c2sc(NC(=O)CNCCCO)nc2-c2ccccc2)ccc1=O.Cl |
| 232 to 234.5 | CC(C)n1nc(-c2sc(C(N)=O)nc2-c2cccc(Cl)c2)ccc1=O [Example 166, 4-(3-Chlorophenyl)-5-(1-isopropyl-6-oxo-1,6-dihydro-3-pyridazinyl)-1,3-thiazole-2-carboxamide] |
| 157 to 158 | Cc1cccc(NC(=O)N(C)c2nc(-c3ccccc3)c(-c3ccc(=O)n(C(C)C)n3)s2)c1 [Example 99, N-[5-(1-isopropyl-6-oxo-1,6-dihydro-3-pyridazinyl)-4-phenyl-1,3-thiazol-2-yl]-N-methyl-N′-(3-methylphenyl)urea] |
| 131 to 132.5 | CC(C)NC(=O)c1nc(-c2ccccc2)c(-c2ccc(=O)n(C(C)C)n2)s1 [Example 180, N-isopropyl-5-(1-isopropyl-6-oxo-1,6-dihydro-3-pyridazinyl)-4-phenyl-1,3-thiazole-2-carboxamide] |
| 232 to 234 | CC(C)n1nc(-c2sc(NC=O)nc2-c2ccccc2)ccc1=O [Example 94, 5-(1-isopropyl-6-oxo-1,6-dihydro-3-pyridazinyl)-4-phenyl-1,3-thiazol-2-ylformamide] |

Source: patent publication US20050004134A1, “Thiazole derivative and pharmaceutical use thereof” (priority 2001, published 2005)
